Source: patent publication US20250186472A1, “COMBINATION OF POH AND REMDESIVIR FOR TREATMENT OF CNS INFECTIONS” (NeOnc Technologies, Inc., priority 2020, published 2025)
Entries after “also recorded” stand apart in the source; their conditions may differ.

Assays:
GL261 mouse glioma [1] = assay: NEO100-mediated human CAR T cell delivery to brain and tumor (CD3 IHC); assay type: in vivo
Protocol: 2-million CD19 and Lym-1 human CAR T cells that were suspended in 0.9% saline working solution to be used for the IV injection with and without intracardiac NEO100.
Preparation of the working solution for intracardiac injection of NEO100: 3% NEO100 suspended in 0.9% saline.
40 μl 3% NEO100 in saline was injected slowly to complete intracardiac application. Direct cell injection into the heart could cause local microinfaractions if the cells are clumpy during injection, hemopericardium and death as a consequence. This is why ultrasound guided injections with a small 30 G needle is important to minimize these potential adverse effects, (1) enabling the visualization of the needle tract to ensure that the needle enters the left ventricle only, and (2) subsequent monitoring of the heart through not only ECG but visualization of heart wall function after the injection. The fine gauge of the needle ensures that the cells are not clumpy when the cells are injected through intracardiac puncture.
Immediate after the completion of NEO100 injection, 2 million human CAR T cells in 40 μl PBS were injected through tail vein catheter that pre-primed with saline solution. To avoid the possible adverse effects mentioned above by direct cell injection through intracardiac application, we set up 2-step procedures for the study.
Step 1: 40 μl 3% NEO100 in saline was injected slowly to complete intracardiac application. This procedure allows NEO100 to exert the function of BBB disruption.
Step 2:2-million CAR T cells were injected by IV through tail vein catheter.
Brain Perfusion—In order to rule out the residue left over inside the blood vessel after euthanizing, the testing animals were perfused by 10 ml 0.9% normal saline solution through left ventricle to flush out the blood.
Confocal Imaging—8 UM fresh frozen sections were made by cryostasis machine and pasted on microslide. Coverslip was mounted on the brain section by DAPI mounting medium before Confocal examination. […]

[2] = test system: BBB in an in vitro BBB model; assay: In vitro BBB model, remdesivir transport across Transwell; assay type: cell-based; details: POH 1.5 mM; POH-Remdesivir vs H2O-Remdesivir in upper chamber; 4 hours
Protocol: For the in vitro, cells were plated in the upper chamber of a Transwell. The POH-Remdesivir or H2O-Remdesivir mixture was placed in the upper chamber. POH was at a concentration of 1.5 mM. The media from both upper and lower chambers were collected after 4 hours and quantitated for remdesivir.

[3] = test system: recurrent malignant gliomas; details: intranasal delivery, cited from earlier work
[4] = test system: Madin-Darby Canine Kidney (MDCK) cells; assay: In vitro BBB tight junction model (Transwell, TEER, fluorescent antibody); assay type: cell-based
Protocol: The labelled components are Transwell chemotaxis chamber; upper chamber; porous membrane and lower chamber. Transwell culture chambers (pore size: 0.8 μm). Madin-Darby Canine Kidney (MDCK) cells are epithelial cells. TEER: transepithelial/transendothelial electrical resistance. Fluorescence Ab: Alexa Fluo®488; donkey anti-rat IgG (H+L). Fluorescence was measured in the lower chamber in about 120 minutes.

GL261 mouse glioma [5] = assay: Anti-mouse PD-1 antibody therapeutic efficacy (survival) in intracranial syngeneic glioma; assay type: in vivo, C57 BL/6 mice; details: IC 40 μl 5% NEO100 and/or IV anti-PD1 2.5 mg/kg; treatment from day 7
Protocol: 100,000 GL261 mouse glioma cells were injected intracranially to immune competent mice, C57 BL/6. 7 days post the injection, the mice were randomly divided into 4 experimental groups, and initiated the treatment at the same day. • Group 1. Control: IV and Intracardiac injection of 40 μl Saline Solution (5). • Group 2. Antibody treated mice: IV 40 μl Anti-mouse PD1 antibody at the dose of 2.5 mg/kg (5). • Group 3. NEO100 treated mice: Intracardiac injection of 40 μl 5% NEO100(5). • Group 4. Combination of NEO100 and antibody treated mice: Intracardiac 40 μl 5% NEO100, followed by IV 40 μl Anti-PD1 antibody at the dose of 2.5 mg/kg (6).
Animal survival data were plotted using the Kaplan-Meier method. One-way ANOVA was used for the overall test for differences. Grouped comparisons were performed using the Tukey method of adjusting for multiple comparisons. Logrank (Mantel-Cox) test was applied for the comparison of survival curves. A statistical evaluation result of p<0.05 was considered significant. • Control vs IC NEO100+IV Anti-mouse PD-1: *** P<0.0003 • Control vs IV Anti-mouse PD-1: ns, p=0.31 • IV Anti-mouse PD-1 vs IC NEO100+IV Anti-mouse: ** P<0.005 • Control vs IC NEO100: ns, p=0.397

Protocol for blood-brain-barrier: Brain Perfusion-Before euthanizing, the testing animals was perfused by 0.9% normal saline solution through left ventricle. The brain was removed and buried in OCT, and stored in −80° C. for further analysis.
Ultrasound Guided Intracardiac Puncture-Briefly, the animals were anesthetized using 2% isoflurane gas and fixed on the platform for intracardiac puncture. To penetrate the syringe needle into intercoastal space promptly through skin and muscle layers into the left ventricle under the guidance of ultrasound imaging. An indication of successful insertion of the needle into the left ventricle is the reflux of fresh arterial blood (pink color in contrast to dark red venous blood) into the syringe.
The extravasation of stained albumin from circulation could be visualized.
NEO100 was delivered via intra-cardiac injection (left ventricle) to determine if there is increased uptake of Evans Blue, a BBB nonpermeable small molecule (dopamine), or antibodies into the brain. […] Different concentration of NE0100 (40 μl in 0.9% saline) was tested through intracardiac puncture, followed by immediate intravenous application of 2% Evans Blue (40 μl in volume). The brain was removed after perfusion.
Experimental groups include: • IC 2% EB only • IC 20% ethanol+2% EB • IC 20% ethanol+2% EB+5% NEO100 • IC 20% ethanol+5% NEO100, followed by 2% EB tail vein injection • IV 20% ethanol+2% EB+5% NEO100 • IV 20% ethanol+2% EB
The immune competent C57 BL/6 mice was injected with 5% NEO100 (v/v) through intracardiac puncture (IC), followed by intravenous injection of 2% Evans Blue at different time points, such as 0, 5 min, 15 min, 30 min, 1-hour, 2-hour, 3-hour, and 4 hours, post the IC injection.
The experimental procedure included: • 1. Intracardiac Injection (IC): 5% NEO100. • 2. Followed by intravenous injection (IV) of 2% EB at different times. • 3. The testing animals were euthanized one hour after the IV injection.

C=C(C)[C@@H]1CC=C(CO)CC1 [NEO100, perillyl alcohol]
severe adverse effect or animal death (GL261 mouse glioma [1]; 3% NEO100 intracardiac injection, 40 μl): does not cause any severe adverse effect or animal death | penetration of human CAR T cells into the tumor formed inside the brain (GL261 mouse glioma [1]; IC 3% NEO100 then IV 2 million anti-CD19 or Lym-1 CAR T cells, compared to IV only, 6 h): greatly increase the penetration | CD3 positive cells in the normal parts of brain (GL261 mouse glioma [1]; IC NEO100 vs IV injection only samples): More CD3 positive cells | delivery of remdesivir across the BBB [2]: very efficient | treated patients achieving 6 month progression-free period ([3]; 140 treated patients): 50% | disease remission, several patients [3]: ≤ 3 years | disease response [3]: regression or stabilization of the disease | side effects from the treatment [3]: almost non-existent | penetration of fluorescence labelled antibody across in vitro BBB model ([4]; Alexa Fluor 488 donkey anti-rat IgG, lower chamber at about 120 minutes): transiently allow labeled antibodies to transiently cross it; also recorded: enhanced penetration | TEER ([4]; NEO100 2 mM): decreased | animal survival (GL261 mouse glioma [5]): dead | disturbance of the BBB (Evans Blue uptake into brain) (blood-brain-barrier; 1:1000 dilution (6.5 mM 40 μl) IC, then IV 2% Evans Blue): still effective to disturb the BBB | dopamine delivery to brain (blood-brain-barrier; intracardiac NEO100): mediated dopamine delivery through the breached blood-brain-barrier | opening of the BBB for antibodies (blood-brain-barrier; intracardiac injection (equivalent to intra-arterial injection for mice)): could open the BBB for antibodies | tight junction in the brain (blood-brain-barrier; intracardiac injection of 5% NEO100 compared to normal brain): breached dramatically | safety of intraarterial administration (blood-brain-barrier; mouse, in vivo): safe
